Where two headings read alike, the source gives them in different places.
Legend:
pOBP-mutant-F88W = biological target: T1, pOBP-mutant-F88W (Sus scrofa, UniProt P81245, F88W); assay: Competitive fluorescent binding assay of pOBP in solution (1-AMA probe); parameters: species or system porcine; details: pOBP and 1-AMA probe at 1 μM, 10 mM phosphate buffer pH 7.4, room temperature, calculated from IC50, read-out: dissociation constant KSol
T1 construct: His6 (N); made in house; host or cells: Escherichia coli BL21(DE3), pET5b vector
T1 sequence (P81245 1-157 F88W): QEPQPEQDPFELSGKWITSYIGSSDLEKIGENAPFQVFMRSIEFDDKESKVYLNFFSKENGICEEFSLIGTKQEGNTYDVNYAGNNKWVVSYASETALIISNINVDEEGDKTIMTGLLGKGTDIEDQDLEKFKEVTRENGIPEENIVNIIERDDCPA
Method: Emission fluorescence spectra were recorded using a Perkin Elmer LS55 instrument at room temperature, with a 1 cm light path quartz cuvette and 5 nm slits for both excitation and emission. The affinity of binding of pOBP was measured using the fluorescence probe 1-AMA as previously reported. About 1 μM pOBP-F88W solution in 10 mM phosphate buffer, pH 7.4, was titrated with aliquots of 1 mM 1-AMA in methanol to final concentrations of 0.25–8 μM. The probe was excited at 375 nm and the fluorescence spectra were recorded between 400 to 570 nm, monitoring the signals between 480 and 490 nm. The dissociation constant (K1-AMA) for the OBP/1-AMA complex was calculated using the equation y=(Bmax × x)/(K1-AMA+x), where y is the degree of saturation, Bmax is the number of maximum binding sites, and K1-AMA is the dissociation constant. The calculation was run using the software Sigma Plot and a single binding site was considered for the OBP.
The affinity of pOBP-F88W towards S-(+)-carvone and R-(−)-carvone and 2-phenylethanol was measured in competitive binding assays, using both pOBP and probe at 1 μM as the final concentration. The ligand solutions, with concentrations ranging from 2 to 20 μM, were prepared in 10 mM phosphate buffer pH 7.4 and used for the binding experiments. Dissociation constants of competitors were calculated from the corresponding IC50 values, using the equation: KSol=[IC50]/1+[1-AMA]/K1-AMA, where [1-AMA] is the free concentration of the fluorescence probe and K1-AMA is the dissociation constant of the complex OBP/1-AMA.

[1] = biological target: T2, pOBP-SAM (pOBP-F88W immobilized on gold gate) (Sus scrofa, UniProt P81245, F88W); assay: WGOFET with pOBP-SAM gate: binding curves from ΔI/I electronic response; parameters: species or system porcine; details: for α (Hill degree of cooperativity): Hill's isotherm fit of binding curve of Fig. 5b; for Kd: pOBP-SAM gate, fit of ΔI/I binding curve of Fig. 5b; for ΔC/C, fractional change of pOBP-SAM capacitance (measured chiral response): at saturation, extracted from source-drain current (Fig. 8a); for plateau response at saturation (ΔI/I): best-fit parameter of binding curve of Fig. 5b, IDS at VG=−0.5 V; for WGOFET response at saturation: binding curves of Fig. 5b; for maximum fractional decrease of IDS: control experiment of Fig. 6: same pOBP-SAM gate exposed alternately to the two enantiomers, rinsed between exposures
T2 construct: His6 (N); made in house; host or cells: Escherichia coli BL21(DE3), pET5b vector
T2 sequence (P81245 1-157 F88W): T1 sequence (P81245 1-157 F88W)
Source text: where Ci≈COBP is the capacitance per unit area. In Fig. 5a, the pOBP-WGOFET transfer-characteristics (IDS versus VG at VDS=−0.5 V) are reported for a device gated with a pristine pOBP-SAM (baseline, red curve) along with the traces measured after exposing the pOBP-SAM to progressively higher concentrations of (S)-(+)carvone (signal, black curves). Apparently, a significant degree of current decrease can be measured even at very low ligand concentrations. In the Supplementary Fig. 8, the gate leakage currents (IG) for the data of Fig. 5a are reported for comparison. […] From the transfer curve the COBP and μFET product, as well as the VT values are extracted. μFET can be as high as (1.1±0.2) × 10^−1 cm^2 V^−1 s^−1, showing a very good level of performance for the pOBP-SAM WGOFET[37]. The fractional current decrease upon binding was evaluated from the transfer curves as ΔI/I=[(I−I0)I0^−1] with I and I0 being IDS values at VG=−0.5 V for the signal and for the base-line curves, respectively. ΔI/I was taken as the WGOFET electronic response as this normalizes the device-to-device variation in FET biosensors, resulting in high response reproducibility.
The fitting of the (S)-(+)-carvone binding curve (red solid line in Fig. 5b) is performed using Langmuir’s isotherm Y=bMAX(X/(KFET+X)), where Y is the ΔI/I electronic response proportional, through bmax, to the degree of saturation. X is the ligand concentration and KFET is the dissociation constant. The fitting of the (R)-(−)-carvone (magenta solid curve in Fig. 5b) was calculated using Hill’s binding model, also used to model the data relevant to the 2-phenylethanol (blue curve). The Hill’s equation is Y=bMAX(X^α/(KFET+X^α)), with α giving the degree of cooperativity (α=1 for non-cooperative, α>1 and α<1 for positive and negative cooperativity, respectively). The fit of the S-(+)-carvone data to a Langmuir’s non-cooperative binding isotherm[39] returns a dissociation constant KFET^+=0.81±0.05 nM and a plateau response at a saturation of (ΔI/I)^+=0.62±0.01, while the limit-of-detection is 50 pM and the limit-of-quantification is 150 pM. The detection of carvone enantiomers here performed is about 6 orders of magnitude better than the determinations performed with a back-gate device. A comparison between the two systems is not straightforward as they hold different device structures and different recognition elements. However, it is a fact that in the WGOFET a direct interaction between the bio-recognition element layer and an electronic interface, is created. The R-(−)-carvone data could only be accounted for by a Hill’s binding isotherm[38] that, through the α coefficient, models the extent of cooperativity of a given binding site. […] The fitting of the S-(+)-carvone to the Hill’s isotherm, performed as control, returns a KFET=0.4±0.2 nM and an α=1.1±0.1, consistent with the Langmuir’s fit. The errors are taken as 1 s.d., as for all data presented.
PBTTT-C14 was dissolved (7 mg ml^−1) in a mixture of 1,2-dichlorobenzene and chloroform (9:1). Gold source (S) and drain (D) interdigitated electrodes were photo-lithographically defined on a flexible substrate. The distance between two differently biased fingers is the channel length (L), while the perimeter of each set of equipotential fingers is the channel width (W); they are 5 μm and 10^4 μm, respectively. The substrate with patterned electrodes was spin coated with a PBTTT-C14 solution at 7,000 r.p.m. for 60 s and annealed at 120 °C for 10 min. A gold plate with an area of ~3 10^−2 cm^2 served as the gate (G) electrode. The SAM functionalizing protocol[52] involved a 50 mM solution of 3-mercaptopropionic acid (3MPA) in ethanol containing 5% acetic acid. N2 was bubbled through the 3MPA solution for at least 10 min to remove dissolved oxygen. The gold electrodes were immersed into the 3MPA solution and kept in the dark under N2 for 18 h at 22 °C. […]

human = system: human; parameters: method as in earlier work; details: perceived as spearmint or caraway odours; cited from earlier work
[2] = read-out: dissociation constant KFET (Hill's isotherm fit)

SMILES	Kd (pOBP-mutant-F88W)	α (Hill degree of cooperativity) [1]	Kd [1, 2]	ΔC/C, fractional change of pOBP-SAM capacitance (measured chiral response) [1]	plateau response at saturation (ΔI/I) [1]	WGOFET response at saturation [1]	maximum fractional decrease of IDS [1]	human threshold for detection (odour) (human)	limit-of-detection ([1]; pOBP-SAM WGOFET)	limit-of-quantification ([1]; pOBP-SAM WGOFET)	Kd ([1]; three devices, read-out: dissociation constant KFET (Langmuir's isotherm fit))
OCCc1ccccc1 [2-phenylethanol]	~40000 nM	0.3±0.1	700 ± 330 nM								
C=C(C)[C@@H]1CC=C(C)C(=O)C1 [(R)-(−)-carvone]	1220 ± 50 nM	0.5±0.1	20 ± 20 nM	−0.17	0.17±0.02	< 20%	much higher response at saturation	30 nM			
C=C(C)[C@H]1CC=C(C)C(=O)C1 [(S)-(+)-carvone]	500 ± 10 nM	1.1±0.1	0.4 ± 0.2 nM	−0.485	0.62±0.01	> 60%	~ 60%	420 nM	50 pM	150 pM	0.81 ± 0.05 nM

Reference: publication PMC4309438, “Capacitance-modulated transistor detects odorant binding protein chiral interactions” (Nature Communications, 2015)
